Literature values as cited in patent US10493103B2, “Peroxide formulations and methods and applicators for using the same” (ACLARIS THERAPEUTICS, INC., priority 2014, dated 2019).
Like-named read-outs stand apart in the source and are kept apart here. Each block holds one molecule with its values, some of them ahead of it.

System: seborrheic keratosis
[1] = applied once daily for 16 weeks

SMILES: CC(O)C(=O)O.N (stereo not shown) [ammonium lactate]
- effectiveness in seborrheic keratosis (in vivo): ineffective

SMILES: C=C1/C(=C\C=C2/CCC[C@]3(C)[C@@H]([C@H](C)/C=C/[C@@H](O)C4CC4)CC[C@@H]23)C[C@@H](O)C[C@@H]1O [calcipotriene ointment, calcipotriene]
- effectiveness in seborrheic keratosis [1]: ineffective

SMILES: CC(C)Cn1cnc2c(N)nc3ccccc3c21 [imiquimod cream, imiquimod]
- effectiveness in seborrheic keratosis [1]: ineffective

- complications of therapy (applied twice daily): burning, pruritus and redness
SMILES: CCOC(=O)c1ccc(C#Cc2ccc3c(c2)C(C)(C)CCS3)nc1 [tazarotene 0.1%, tazarotene]
- subjects with efficacy (applied twice daily, off-label, 7/15 subjects): 47%

SMILES: CCOC(=O)c1ccc(C#Cc2ccc3c(c2)C(C)(C)CCS3)nc1 [tazarotene cream, tazarotene]
- effectiveness in seborrheic keratosis [1]: ineffective

SMILES: C=C1CC[C@H](O)C/C1=C/C=C1\CCC[C@]2(C)[C@@H]([C@H](C)CCCC(C)C)CC[C@@H]12 [topical vitamin D3 ointment, vitamin D3]
- patients with an 80% or more improvement in lesions (once or twice daily for an average of 7.3 months (range 3-12 months)): 30%
